From patent publication US6914075B2, “Cystine derivative and agent for suppressing activation of inflammatory factors” (Ajinomoto Co., Inc., priority 2001, dated 2005) come the findings set out here.

For the experiment, the system named is NF-κB. The experiment can be described thus: Test of the potency of NF-κB activation suppression (gel shift assay, UVB-irradiated human epidermal cells). It counts as cell-based. The following applies: added 18 h before UVB 50 mJ/cm^2, nuclear protein 4 to 5 hours later. The method, then: Test compounds shown in Table 1 were added individually to human epidermal cells at confluency in a culture plate. 18 hours later, the culture broth was exchanged with a phenol red-free culture medium. Using Dermalei M-DMR-80 (manufactured by Toshiba Medical Supplies, Co., Ltd.), the cells were irradiated with an ultraviolet ray (UVB: 50 mJ/cm^2). 4 to 5 hours later, the cells were recovered and the nuclear protein was extracted using a general method. By using a gel shift assay method, the activated NF-κB in the resulting nuclear protein was detected. Determination of NF-κB was conducted based on counting the radioactivity of labeled NF-κB using a bioimaging analyzer BAS2000 (manufactured by Fuji Film Co., Ltd.). The ratio of NF-κB activation suppression by the inventive compounds compared with a test compound was calculated by the following formula (1). Ratio (%) of NF-κB activation suppression=[1-(A1−A3)/(A2−A3)]×100 (1)
A1: radioactivity of NF-κB band with addition of test compound
A2: radioactivity of NF-κB band without addition of test compound
A3: radioactivity of NF-κB band without addition of test compound and without ultraviolet irradiation
In general terms: In EMSA bound probe runs differently from free probe, usually more slowly.

Molecules are shown by their SMILES.

`O=C(O)[C@H](CO)NCc1ccccc1O` [N-(2-Hydroxybenzyl)-L-serine]: the “Suppression ratio (%) of NF-κB activation” value (shortened to “Suppression ratio (%)”) is listed as 17% (test compound 10 mM) and 34% (test compound 30 mM).
Take `O=C(O)[C@H](CSSC[C@H](NCc1ccccc1O)C(=O)O)NCc1ccccc1O` [N,N′-Bis(2-hydroxybenzyl)-L-cystine]: the “Suppression ratio (%)” value (test compound 0.1 mM) came to 41%, the “Suppression ratio (%)” value (test compound 0.5 mM) was 86% and the “Suppression ratio (%)” value (test compound 1.0 mM) is over 100%.
As to `CC(=O)N[C@@H](CSSC[C@H](NC(C)=O)C(=O)O)C(=O)O` [N,N′-Diacetyl-L-cystine], the “Suppression ratio (%)” value was determined as 48% (test compound 10 mM) and 67% (test compound 30 mM).
